# Experiments:
# Assay type in all cases: in vivo
# [1] = tested on: rice cultivar Zhonghua 11; test: Spraying of stems and leaves of regenerated T0 rice plants with Haloxyfop-P
# Excerpt: According to the growth state of the regenerated plants, the T0 generation plants regenerated on the medium were placed in water for 5 to 30 days, and then the plant stems and leaves were directly sprayed with Haloxyfop-P, and the spray concentration range is between 0.1 and 2 times of the recommended concentration of commercial preparations. Four weeks after spraying, a total of 5 surviving mutants, ie, herbicide-resistant mutants, were obtained (FIG. 3).
# [2] = tested on: rice tissue culture seedlings; test: Spraying of rice tissue culture seedlings with HPPD herbicide; conditions: about two weeks after spraying, ⅛ of the field concentration; for leaves and growth of overexpressing positive rice seedlings: rice overexpressing HPPD protein; for leaves of wild-type rice tissue culture seedlings: wild-type rice without resistance
# Description: The rice tissue culture seedlings overexpressing HPPD protein were used as the positive control, and the wild-type rice plants of the same stage and variety were used as the negative control. Each group of 8 plants was sprayed with different concentration gradients of herbicide: mesotrione or Topramezone. […] The herbicide concentration, that is, ⅛ of the field concentration of mesotrione or Topramezone, is a suitable screening concentration. The rice plants obtained in Example 2 were treated at this screening concentration to obtain herbicide-resistant plants
# [3] = tested on: wheat (Triticum aestivum L.); test: Herbicide screening: imazapic added to wheat rooting medium
# Description: The existing imazapic-resistant wheat plants were used as positive control, and wild-type wheat was used as negative control. Different concentrations of imazapic were added to the wheat rooting medium, and an appropriate screening concentration was found, that is, 1/15 of the concentration of imazapic used in the field.
Compound,leaves and growth of overexpressing positive rice seedlings [2],leaves of wild-type rice tissue culture seedlings [2],also measured
C[C@@H](Oc1ccc(Oc2ncc(C(F)(F)F)cc2Cl)cc1)C(=O)O [Haloxyfop-P],–,–,"number of surviving (herbicide-resistant) mutants ([1]; base-edited T0 plants, four weeks after spraying, 0.1 to 2 times the recommended concentration of commercial preparations): 5; state of heart leaves of wild-type rice after spraying ([1]; wild-type Zhonghua No. 11 (WT), FIG. 3): dry and dead"
Cc1c(C(=O)c2cnn(C)c2O)ccc(S(C)(=O)=O)c1C1=NOCC1 [Topramezone],normal and grew normally,turned white and then withered slowly,–
Cc1cnc(C2=NC(=O)C(C)(C(C)C)N2)c(C(=O)O)c1 (centres unmarked) [imazapic],–,–,"rooting of positive control wheat ([3]; existing imazapic-resistant (overexpression-positive) wheat, rooting medium with 1/15 of the field concentration of imazapic): grow roots normally; rooting of wild-type wheat ([3]; wild-type wheat (negative control), rooting medium with 1/15 of the concentration of imazapic used in the field): significantly inhibited"
CS(=O)(=O)c1ccc(C(=O)C2C(=O)CCCC2=O)c([N+](=O)[O-])c1 [mesotrione],normal and grew normally,turned white and then withered slowly,–

# — patent publication US20230257761A1, “HERBICIDE RESISTANT PLANT” (INSTITUTE OF GENETICS AND DEVELOPMENTAL BIOLOGY, CHINESE …, priority 2019, published 2023)
